Data published in PubChem BioAssay AID1963847 (Molecular Pharmacology Branch, DTP, NCI, 2024).
Values joined by “and” are separate entries in the source; they are usually repeats but may differ in a detail not shown here. Equal values may be shown once.

Test system: 415267-285-R-J2-PDC complex spheroid viability
Assay: Anticancer human tumor 415267-285-R-J2-PDC patient-derived breast carcinoma cell line growth inhibition [POLQ]
Details: for viability, T/C: stronger effect = lower value; active = viability on the fitted dose curve at most 10% of control; inactive = the rest
Protocol: Multicellular complex tumor spheroid response to Polymerase (POL) inhibitors (novobiocin, ART-558, RP6685) in combination with a variety of drugs and investigational agents in selected tumor cell lines
The POL inhibitors (novobiocin, ART-558, and RP6685) were evaluated both individually and in combination with standard of care and investigational anticancer small molecules within a complex spheroid model of solid tumors. . Complex spheroids include a stromal component modeled by human endothelial cells (HUVEC) and fibroblasts modeled by human mesenchymal stem cells (MSCs). The concentration ranges selected for each drug and investigational agent were based upon clinically achievable concentrations if the clinical Cmax of the agent was known.
Compounds. The drugs and investigational agents: novobiocin (NSC847541), ART-558 (NSC835418), RP-6685 (NSC848927), peposertib (NSC802822), ceralasertib (NSC780249), elimusertib (NSC800525), camonsertib (NSC841442), AZD-1390 (NSC803789), olaparib (NSC753686), talazoparib (NSC767125), rucaparib (NSC756644), sotorasib (NSC818433), MRTX-1133 (NSC836407), SN-38 (NSC673596), topotecan (NSC609699), epotoside (NSC141540), doxorubicin (NSC123127), gemcitabine (NSC613327), 5-fluorouracil (NSC19893), paclitaxel (NSC125973), vemurafenib (NSC761431), MSA-2 (NSC828583), SN-011 (NSC837082), adavosertib (NSC754352), prexasertib (NSC758257), carboplatin (NSC241240) and oxaliplatin (NSC266046), were obtained from the National Cancer Institute (NCI) Developmental Therapeutics Program Chemical Repository (21). The FDA-approved anticancer drug set is available from the Developmental Therapeutics Program at https://dtp.cancer.gov/organization/dscb/obtaining/. […] The stock solutions were prepared in dimethyl sulfoxide (DMSO, Sigma-Aldrich, St. Louis, MO, cat. D2650), except for the platinum compounds which were prepared in saline (Quality Biological, Gaithersburg, MD, cat. 114-055-101), at 800-fold the tested concentration and stored at -70 degrees C prior to their use. All drugs and investigational agents were tested over a range starting from a high concentration at or near the clinical Cmax and decreasing in half-log increments. If the clinical Cmax for an agent had not been determined, the highest concentration tested was 10 microM, except for SN-38, which was tested at a high concentration of 1 microM.
Cell Culture. All cells were maintained in an incubator at 37 degrees C and 5% CO2 with 95% humidity. The PDC lines were cultured according to standard operating procedures established by the NCI PDMR (https://pdmr.cancer.gov). Table 3 of the manuscript, lists the cell lines along with the number of the three cell types plated to form the mct-spheroids and media for tumor cell growth. After thawing, all PDC lines, except 997537-175-T-J1-PDC and 415267-285-R-J2-PDC, were cultured in Matrigel-coated flasks prepared with a working solution of 1X Ham's F-12 nutrient mix, without supplementation (Thermo Fisher Scientific, cat. 11765054), 100 U/mL penicillin-streptomycin (Thermo Fisher Scientific, cat. 15140122), and 2.5% Matrigel (Corning Inc., Corning, NY, cat. 354248) for the first three passages. The two PDC lines 997537-175-T-J1-PDC and 415267-285-R-J2-PDC were cultured on uncoated flasks. The 857933-349-R-J2-PDC line was cultured in 6C/Colon 1B media containing advanced DMEM/F-12 (Thermo Fisher Scientific, cat. 12634028), 10 mM HEPES (Thermo Fisher Scientific, cat. 15630080), 1X GlutaMAX supplement (Thermo Fisher Scientific, cat. 35050061), 0.1 mg/mL primocin (InvivoGen, San Diego, CA, cat. ant-pm-2), 10% defined fetal bovine serum, heat inactivated (HyClone Laboratories Inc., Logan, UT, cat. SH30070.03HI), 50% L-WRN conditioned media (ATCC, cat. CRL-3276), 1.25 mM N-Acetyl-L-cysteine (Sigma-Aldrich, cat. A9165), 10 mM nicotinamide (Sigma-Aldrich, cat. N0636), 1X B-27 supplement (Thermo Fisher Scientific, cat. 17504044), 1X N-2 supplement (Thermo Fisher Scientific, cat. […]

[1] = curve of first compound, second compound 0.0316 µM
[2] = curve of first compound, second compound 0.1 µM
[3] = curve of first compound, second compound 0.316 µM
[4] = curve of first compound, second compound 1 µM
[5] = curve of first compound, second compound 3.16 µM
[6] = curve of first compound, second compound 10 µM
[7] = second compound 0.0316 µM, first compound 0.0316 µM
[8] = second compound 0.0316 µM, first compound 0.1 µM
[9] = second compound 0.0316 µM, first compound 0.316 µM
[10] = second compound 0.0316 µM, first compound 1 µM
[11] = second compound 0.0316 µM, first compound 3.16 µM
[12] = second compound 0.0316 µM, first compound 10 µM
[13] = second compound 0.1 µM, first compound 0.0316 µM
[14] = second compound 0.1 µM, first compound 0.1 µM
[15] = second compound 0.1 µM, first compound 0.316 µM
[16] = second compound 0.1 µM, first compound 1 µM
[17] = second compound 0.1 µM, first compound 3.16 µM
[18] = second compound 0.1 µM, first compound 10 µM
[19] = second compound 0.316 µM, first compound 0.0316 µM
[20] = second compound 0.316 µM, first compound 0.1 µM
[21] = second compound 0.316 µM, first compound 0.316 µM
[22] = second compound 0.316 µM, first compound 1 µM
[23] = second compound 0.316 µM, first compound 3.16 µM
[24] = second compound 0.316 µM, first compound 10 µM
[25] = second compound 1 µM, first compound 0.0316 µM
[26] = second compound 1 µM, first compound 0.1 µM
[27] = second compound 1 µM, first compound 0.316 µM
[28] = second compound 1 µM, first compound 1 µM
[29] = second compound 1 µM, first compound 3.16 µM
[30] = second compound 1 µM, first compound 10 µM
[31] = second compound 3.16 µM, first compound 0.0316 µM
[32] = second compound 3.16 µM, first compound 0.1 µM
[33] = second compound 3.16 µM, first compound 0.316 µM
[34] = second compound 3.16 µM, first compound 1 µM
[35] = second compound 3.16 µM, first compound 3.16 µM
[36] = second compound 3.16 µM, first compound 10 µM
[37] = second compound 10 µM, first compound 0.0316 µM
[38] = second compound 10 µM, first compound 0.1 µM
[39] = second compound 10 µM, first compound 0.316 µM
[40] = second compound 10 µM, first compound 1 µM
[41] = second compound 10 µM, first compound 3.16 µM
[42] = second compound 10 µM, first compound 10 µM
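Also: spheroids exposed to compounds for one week before readout.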
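For viability, T/C in this document: luminescence used as stand-in measure of viable cells.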

O=C(Nc1ccc(O)c(NS(=O)(=O)c2ccc(F)cc2)c1)c1ccc(-c2ccccc2)cc1 + COC1C(OC(N)=O)C(O)C(Oc2ccc3c(O)c(NC(=O)c4ccc(O)c(CC=C(C)C)c4)c(=O)oc3c2C)OC1(C)C
8.17 µM: IC50 [5]
8.51 µM: IC50 [1]
8.85 µM: IC50 [2]
> 10 µM: IC50 [6]
8.54 µM: IC50 [4]
inactive: viability, T/C [7] 97.7% | viability, T/C [8] 93% | viability, T/C [9] 94.8% | viability, T/C [10] 95.8% | viability, T/C [11] 93.6% | viability, T/C [12] 42.9% | viability, T/C [13] 95.8% | viability, T/C [14] 101% | viability, T/C [15] 87.6% | viability, T/C [16] 114% | viability, T/C [17] 94.6% | viability, T/C [18] 44.3% | viability, T/C [19] 110% | viability, T/C [20] 99.2% | viability, T/C [21] 98.9% | viability, T/C [22] 117% | viability, T/C [23] 94.3% | viability, T/C [24] 44.4% | viability, T/C [25] 90.6% | viability, T/C [26] 108% | viability, T/C [27] 95.7% | viability, T/C [28] 104% | viability, T/C [29] 93.3% | viability, T/C [30] 42.9% | viability, T/C [31] 103% | viability, T/C [32] 105% | viability, T/C [33] 119% | viability, T/C [34] 113% | viability, T/C [35] 94.4% | viability, T/C [36] 40.5% | viability, T/C [37] 118% | viability, T/C [38] 110% | viability, T/C [39] 103% | viability, T/C [40] 98.5% | viability, T/C [41] 92.5% | viability, T/C [42] 48.5%
8.8 µM: IC50 [3]

COc1cc2cc(C(=O)CCC(=O)O)sc2cc1OC + COC1C(OC(N)=O)C(O)C(Oc2ccc3c(O)c(NC(=O)c4ccc(O)c(CC=C(C)C)c4)c(=O)oc3c2C)OC1(C)C
> 10 µM: IC50 [1] | IC50 [2] | IC50 [3] | IC50 [4] | IC50 [5] | IC50 [6]
inactive: viability, T/C [7] 99.7% | viability, T/C [8] 104% | viability, T/C [9] 101% | viability, T/C [10] 104% | viability, T/C [11] 103% | viability, T/C [12] 102% | viability, T/C [13] 102% | viability, T/C [14] 106% | viability, T/C [15] 97.7% | viability, T/C [16] 107% | viability, T/C [17] 102% | viability, T/C [18] 109% | viability, T/C [19] 107% | viability, T/C [20] 97.3% | viability, T/C [21] 101% | viability, T/C [22] 98.6% | viability, T/C [23] 117% | viability, T/C [24] 105% | viability, T/C [25] 98.7% | viability, T/C [26] 111% | viability, T/C [27] 109% | viability, T/C [28] 107% | viability, T/C [29] 104% | viability, T/C [30] 106% | viability, T/C [31] 96.1% | viability, T/C [32] 105% | viability, T/C [33] 101% | viability, T/C [34] 113% | viability, T/C [35] 96% | viability, T/C [36] 98.1% | viability, T/C [37] 101% | viability, T/C [38] 109% | viability, T/C [39] 102% | viability, T/C [40] 102% | viability, T/C [41] 96.7% | viability, T/C [42] 104%

Nc1ccn(C2OC(CO)C(O)C2(F)F)c(=O)n1 (configuration not stated)
active: viability, T/C (compound 0.1 µM) 5.29% and 5.02% and 7.12% | viability, T/C (compound 0.316 µM) 6.27% and 4.87% and 6.14% | viability, T/C (compound 1 µM) 5.28% and 7.75% and 7.66% | viability, T/C (compound 3.16 µM) 5.29% and 4.37% and 5.37% | viability, T/C (compound 10 µM) 6.07% and 4.68% and 5.14%
< 0.0316 µM: IC50 (curve of compound)

CC1COCCN1c1cc(-c2ccnn2C)c2ccnc(-c3ccn[nH]3)c2n1 (configuration not stated) + Cc1cccc(N(C)C(=O)C2C(O)CCN2c2nc(C)cc(C(F)(F)F)c2C#N)c1
< 0.0316 µM: IC50 [1] | IC50 [2] | IC50 [3]
0.0336 µM: IC50 [5]
0.0359 µM: IC50 [6]
active: viability, T/C [9] 6.77% | viability, T/C [10] 4.72% | viability, T/C [11] 4.84% | viability, T/C [12] 4.51% | viability, T/C [15] 6.11% | viability, T/C [16] 4.5% | viability, T/C [17] 4.14% | viability, T/C [18] 5.26% | viability, T/C [21] 5.28% | viability, T/C [22] 4.19% | viability, T/C [23] 4.21% | viability, T/C [24] 4.67% | viability, T/C [27] 6.08% | viability, T/C [28] 4.95% | viability, T/C [29] 4.35% | viability, T/C [30] 4.81% | viability, T/C [33] 5.26% | viability, T/C [34] 4.41% | viability, T/C [35] 4.33% | viability, T/C [36] 4.61% | viability, T/C [39] 5.93% | viability, T/C [40] 4.73% | viability, T/C [41] 5.68% | viability, T/C [42] 4.55%
inactive: viability, T/C [7] 44% | viability, T/C [8] 17.2% | viability, T/C [13] 41.2% | viability, T/C [14] 11.3% | viability, T/C [19] 47.2% | viability, T/C [20] 13.3% | viability, T/C [25] 52.6% | viability, T/C [26] 10.9% | viability, T/C [31] 52.2% | viability, T/C [32] 10.7% | viability, T/C [37] 53.4% | viability, T/C [38] 22.9%
0.0339 µM: IC50 [4]
